# Experimental data as given in patent US20100113366A1, “USE OF PROLINE-RICH PEPTIDE DERIVED FROM HYPOTHALAMUS FOR THE MANUFACTURE OF A MEDICAMENT FOR THE TREATMENT AND/OR PROPHYLAXIS OF CATTLE LEUCOSIS” (priority 2005, published 2010).
# Where no end group is shown, it is not given here.
# Tested on: cows with leucosis
# Test: hematological and cytomorphological blood indices of cows with leucosis after PRP-1 administration in vivo
# Details: 48 h after 1st and 2nd administration; microscopic analysis
# Protocol: The cows with leucosis were administered with the PRP-1 solution in concentration 1.57×10^−4 g in 1 ml in a dose of 4×10^−3 ml/kg live weight of animal twice in 48 h.
# The blood samples were taken from the jugular vain of animal into the test tubes with anti-coagulant Trilon-B before administration, in 48 h after 1st and 2nd administrations, as well as in 33 days after the 2nd administration. The blood hematomorphological and cytomorphological studies were carried out according to the available methods of veterinary hematology.
sequence,measurement,value
"AGAPEPAEPAQPGVY [PRP-1, Ala-Gly-Ala-Pro-Glu-Pro-Ala-Glu-Pro-Ala-Gln-Pro-Gly-Val-Tyr]","morphological changes of small lymphocytes with high resistance, neutrophils, eosinophils and monocytes in blood smears",no any morphological changes
